{"source": "paper PMC11597817", "about": "“Modulation of Multispecific Transporters by Uncaria tomentosa Extract and Its Major Phytoconstituents” (Pharmaceutics, 2024)", "target": "T1, OCT1 (Homo sapiens, UniProt O15245)", "T1 construct": "expressed in transfected cells; host or cells: HEK293 (lentiviral transduction; cDNA synthesised by GenScript)", "T1 sequence (O15245 1-554)": "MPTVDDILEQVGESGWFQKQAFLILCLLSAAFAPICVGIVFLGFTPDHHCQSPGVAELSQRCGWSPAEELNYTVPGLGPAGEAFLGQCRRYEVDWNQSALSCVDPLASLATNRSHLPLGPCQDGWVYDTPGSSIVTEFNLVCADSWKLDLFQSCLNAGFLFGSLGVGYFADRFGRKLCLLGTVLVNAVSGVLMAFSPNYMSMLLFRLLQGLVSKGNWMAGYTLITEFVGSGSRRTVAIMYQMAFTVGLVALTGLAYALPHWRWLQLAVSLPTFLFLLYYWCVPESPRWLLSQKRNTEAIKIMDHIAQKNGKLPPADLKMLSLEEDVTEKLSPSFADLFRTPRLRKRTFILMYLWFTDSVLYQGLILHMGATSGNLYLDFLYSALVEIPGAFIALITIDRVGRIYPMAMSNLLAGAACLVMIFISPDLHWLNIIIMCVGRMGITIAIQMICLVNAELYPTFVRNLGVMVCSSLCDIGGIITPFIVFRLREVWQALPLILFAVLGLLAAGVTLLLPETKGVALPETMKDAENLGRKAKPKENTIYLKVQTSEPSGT", "test": "Uptake inhibition assay, OCT1-overexpressing HEK293 cells", "assay_type": "cell-based", "details": "oxindole alkaloids, substrate metformin, read-out: IC50 (95% CI of IC50)", "source_text": "The human embryonic kidney 293 (HEK293) cell line was purchased from Invitrogen/ThermoFisher (Waltham, MA, USA). Madin–Darby canine kidney II (MDCKII) wild type cells were obtained from the European Collection of Authenticated Cell Cultures (ECACC catalog no. 00062107). HEK293 cells overexpressing the human uptake OATP1B1 (NCBI Reference Sequence: NM_006446.4), OATP1B3 (NM_019844), OATP2B1 (NM_007256), OATP1A2 (NM_134431), OAT1-3 (BC033682.1; NM_006672.3; BC022387), OCT1-3 (BC126364.1; NM_003058; NM_021977), OCTN1 (NM_003059.3), NTCP (NM_003049.3), MATE1 (NM_018242.3), MATE2K (NM_001099646.2), ENT4 (NM_001040661.1), SGLT2 (AJ133127.1), ASCT1/2 (NM_003038.5; NM_005628.3), LAT1/2 (NM_003486.6; NM_012244.4), and THTR1/2 (NM_006996; NM_025243) and mock and human efflux BCRP (NM_004827.2), BSEP (NM_003742.2), MDR1 (NM_000927.4), and MRP1-5 (NM_004996; NM_000392.4; BC137347.1; NM_005845.4; NM_005688.2) transporters as well as MDCKII overexpressing human ENT1/2 (NM_001078177; NM_001532.2) and URAT1 (BC053348) transporters were created by lentiviral transduction. The cDNA encoding respective transporters were synthetized and cloned by GenScript (Piscataway, NJ, USA). The production of lentivirus supernatants, the transduction of the cells, cloning, functional characterization, and validation were performed by Charles River Laboratories Hungary Kft. (Budapest, Hungary).\nCell cultures were maintained in Dulbecco’s modified Eagle’s medium (DMEM), 4.5 g/L of glucose, supplemented with GlutaMAX^TM, 2.5 v/v % penicillin/streptomycin, and 10% fetal bovine serum (FBS) at 37 °C, 5% CO2, and 90% relative humidity. The medium was replaced two or three times per week; cells were harvested using TrypLE™ Express (ThermoFisher) at 80 to 90% confluence and passaged or seeded. HEK293 cells of passage < 12 (from thawing) and MDCKII cells of passage < 18 were seeded at a density of 1 × 10^5 cells/well onto poly-D-lysine-coated or -non-coated 96-well plates and incubated for 18–22 h prior to inhibition assays.\nPlated cells were preincubated with a transport buffer (HBSS) containing 30 or 150 µg/mL of UT extract or 100 µM of isopteropodine, mitraphylline, or uncarine D for 15 min at an appropriate temperature. […] For radiolabeled substrates, accumulation was measured by liquid scintillation counting (MicroBeta Scintillation Counter, PerkinElmer).\nThe transporter-mediated uptake and ATP-dependent transport were determined by subtracting the activity of the control cell/transporter abundant-membrane in the presence of AMP from the activity of the transporter-overexpressing cell/transporter-abundant membrane in the presence of ATP. The relative transporter-specific accumulation was expressed as the percent of DMSO activity. […] Confidence intervals (CIs) of 95% were also determined. […]", "note": "Read-outs that look alike come from different tables or passages of the source."}
{"compound": "COC(=O)C1=CO[C@@H](C)[C@@H]2CN3CC[C@@]4(C(=O)Nc5ccccc54)[C@@H]3C[C@H]12", "note": "[isopteropodine]", "values": [{"measurement": "IC50", "setting": "listed as Isopteropodine", "value": 2.81, "unit": "µM"}, {"measurement": "IC50", "value": 2.8, "unit": "µM"}]}
{"compound": "COC(=O)C1=CO[C@@H](C)[C@H]2CN3CC[C@]4(C(=O)Nc5ccccc54)[C@@H]3C[C@H]12", "note": "[mitraphylline]", "values": [{"measurement": "IC50", "setting": "listed as Mitraphylline", "value": 7.05, "unit": "µM"}, {"measurement": "IC50", "value": 7.1, "unit": "µM"}]}
